Assay results reported in patent EP3722296B1, “DIHYDRONAPHTHYRIDINES AND RELATED COMPOUNDS USEFUL AS KINASE INHIBITORS FOR THE TREATMENT OF PROLIFERATIVE DISEASES” (Deciphera Pharmaceuticals, LLC, priority 2012, dated 2013).

Tests used:
Phospho-KIT (Tyr719) [1] = molecular target: T1, Phospho-KIT (Tyr719) (Homo sapiens, UniProt P10721, K642E); assay: GIST882 KIT Western Blot; format: cell-based; settings: GIST882 cells, 4 hours, serum-free medium; read-out: pKIT suppression by western blot analysi GIST 882
T1 construct: endogenous in cells; host or cells: GIST882
Method in brief: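 Phospho-KIT (Tyr719) was immunoblotted on PVDF and imaged in fluorescence mode after ECL Plus, with stripping and reprobing for total KIT. IC50 values were derived from the blot signals.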

c-KIT D816H kinase = molecular target: T2, c-KIT D816H kinase (Homo sapiens, UniProt P10721, D816H); assay: c-KIT D816H Kinase Assay; format: biochemical; settings: enzymatic assay, ATP 200 µM
T2 construct: The construct contains residues T544-V976 of cKit; GST (N); TEV cleavage site (internal); purchased deCODE Biostructures
Method in brief: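 Coupled spectrophotometric assay following NADH oxidation as absorbance decrease at 340 nm, monitored continuously for 6 hours at 30 °C after adding serially diluted compound. Enzyme: mutant cKit construct with N-terminal tag, GST fusion and TEV cleavage site.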

Phospho-KIT (Tyr719) [2] = assay: GIST430 KIT Western Blot; format: cell-based; settings: GIST430 cells, 4 hours, serum-free medium; read-out: pKIT suppression by western blot analysi GIST430
Method in brief: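 GIST430 cells were compound-treated in serum-free Ham's F10, then lysed. Phospho-KIT (Tyr719) was measured by western blot with fluorescence-mode ECL, and blots were reprobed for total KIT; IC50 derived from concentration response.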

c-KIT kinase = c-KIT kinase (Homo sapiens, UniProt P10721); assay: c-KIT kinase Assay; format: biochemical; set-up: cKIT residues T544-V976; GST (N); TEV cleavage site (internal); purchased deCODE Biostructures; settings: enzymatic assay, ATP 200 µM; read-out: KIT (wt) IC50
Method in brief: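 Activity of wild-type human c-KIT kinase was followed as NADH oxidation, read as falling absorbance at 340 nm on a Synergy 2 plate reader (BioTeK) for 2 hours at 30 °C. Rates from the 0 to 1 h window were compared with an uninhibited control to give percent inhibition. IC50 values were fitted in GraphPad Prism across a range of inhibitor concentrations.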

Sequence of c-KIT kinase (P10721 544-976): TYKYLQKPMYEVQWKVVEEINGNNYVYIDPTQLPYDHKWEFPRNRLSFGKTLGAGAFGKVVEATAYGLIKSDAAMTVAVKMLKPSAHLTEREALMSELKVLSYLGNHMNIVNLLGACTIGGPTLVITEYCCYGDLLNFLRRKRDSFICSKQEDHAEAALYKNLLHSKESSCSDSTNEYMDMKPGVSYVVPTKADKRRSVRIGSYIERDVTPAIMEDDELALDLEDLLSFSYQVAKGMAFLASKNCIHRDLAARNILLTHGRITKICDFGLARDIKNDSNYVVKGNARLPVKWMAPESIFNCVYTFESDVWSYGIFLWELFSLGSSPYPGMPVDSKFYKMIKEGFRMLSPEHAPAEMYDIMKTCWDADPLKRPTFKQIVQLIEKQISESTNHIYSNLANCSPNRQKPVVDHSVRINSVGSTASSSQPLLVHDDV
T1 sequence (P10721 26-976 K642E): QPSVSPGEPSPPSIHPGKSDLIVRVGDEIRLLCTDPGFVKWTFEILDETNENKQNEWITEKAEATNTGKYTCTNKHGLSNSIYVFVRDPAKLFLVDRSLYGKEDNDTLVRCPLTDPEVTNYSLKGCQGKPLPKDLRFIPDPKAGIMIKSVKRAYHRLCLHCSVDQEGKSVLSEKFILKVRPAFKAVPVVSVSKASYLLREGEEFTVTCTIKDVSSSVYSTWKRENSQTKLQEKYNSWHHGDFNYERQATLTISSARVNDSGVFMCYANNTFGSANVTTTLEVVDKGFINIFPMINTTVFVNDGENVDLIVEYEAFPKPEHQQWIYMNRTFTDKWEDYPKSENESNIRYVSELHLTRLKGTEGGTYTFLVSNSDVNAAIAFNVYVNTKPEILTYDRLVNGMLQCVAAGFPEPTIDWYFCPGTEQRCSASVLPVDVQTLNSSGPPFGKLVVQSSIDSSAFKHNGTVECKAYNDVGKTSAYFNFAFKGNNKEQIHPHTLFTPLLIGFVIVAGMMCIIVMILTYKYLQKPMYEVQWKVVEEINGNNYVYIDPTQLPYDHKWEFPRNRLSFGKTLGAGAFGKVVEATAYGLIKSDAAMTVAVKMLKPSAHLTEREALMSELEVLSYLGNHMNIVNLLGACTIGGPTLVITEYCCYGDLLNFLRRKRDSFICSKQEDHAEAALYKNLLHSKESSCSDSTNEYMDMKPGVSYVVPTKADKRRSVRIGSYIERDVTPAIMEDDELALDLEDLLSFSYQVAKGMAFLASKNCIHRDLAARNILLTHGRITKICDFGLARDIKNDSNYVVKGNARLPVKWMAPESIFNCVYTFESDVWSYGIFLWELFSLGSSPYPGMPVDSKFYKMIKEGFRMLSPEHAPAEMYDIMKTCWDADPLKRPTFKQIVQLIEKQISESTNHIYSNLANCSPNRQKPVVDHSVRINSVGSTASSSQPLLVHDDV
T2 sequence (P10721 544-976 D816H): as the sequence (P10721 544-976) above, with D273H counted along it

Row | IC50 (Phospho-KIT (Tyr719) [1]) | IC50 (c-KIT D816H kinase) | IC50 (Phospho-KIT (Tyr719) [2]) | IC50 (c-KIT kinase) | SMILES
1 | 0.01 to 0.1 µM | 0.01 to 0.1 µM | < 0.01 µM | < 0.01 µM | CCn1c(=O)c(-c2cc(NC(=O)Nc3ccccc3)c(F)cc2Cl)cc2cnc(NC(=O)N(C)C)cc21 [Example 70, 3-(3-(2-chloro-4-fluoro-5-(3-phenylureido)phenyl)-1-ethyl-2-oxo-1,2-dihydro-1,6-naphthyridin-7-yl)-1,1-dimethylurea]
2 | 0.01 to 0.1 µM | < 0.01 µM | 0.01 to 0.1 µM | < 0.01 µM | CCn1c(=O)c(-c2cc(NC(=O)Nc3ccccc3)c(F)cc2Cl)cc2cnc(NC(=O)N3CC(O)C3)cc21 [Example 81, N-(3-(2-chloro-4-fluoro-5-(3-phenylureido)phenyl)-1-ethyl-2-oxo-1,2-dihydro-1,6-naphthyridin-7-yl)-3-hydroxyazetidine-1-carboxamide]
3 | 0.01 to 0.1 µM | < 0.01 µM | < 0.01 µM | 0.01 to 0.1 µM | CCn1c(=O)c(-c2cc(NC(=O)Nc3cc(F)cc(F)c3)c(F)cc2Cl)cc2cnc(NC(C)=O)cc21 [Example 67, N-(3-(2-chloro-5-(3-(3,5-difluorophenyl)ureido)-4-fluorophenyl)-1-ethyl-2-oxo-1,2-dihydro-1,6-naphthyridin-7-yl)acetamide]
4 | 0.1 to 1 µM | < 0.01 µM | 0.01 to 0.1 µM | < 0.01 µM | CCn1c(=O)c(-c2cc(NC(=O)Nc3cccc(F)c3)c(F)cc2C)cc2cnc(N)cc21 [Example 58, 1-(5-(7-amino-1-ethyl-2-oxo-1,2-dihydro-1,6-naphthyridin-3-yl)-2-fluoro-4-methylphenyl)-3-(3-fluorophenyl)urea]
5 | 0.01 to 0.1 µM | < 0.01 µM | 0.01 to 0.1 µM | 0.01 to 0.1 µM | CCn1c(=O)c(-c2cc(NC(=O)Nc3cc(F)cc(F)c3)c(F)cc2Cl)cc2cnc(NC)cc21 [Example 55, 1-(4-chloro-5-(1-ethyl-7-(methylamino)-2-oxo-1,2-dihydro-1,6-naphthyridin-3-yl)-2-fluorophenyl)-3-(3,5-difluorophenyl)urea]
6 | 0.01 to 0.1 µM | < 0.01 µM | < 0.01 µM | < 0.01 µM | CCn1c(=O)c(-c2cc(NC(=O)Nc3cccc(F)c3)c(F)cc2Cl)cc2cnc(NC)cc21 [Example 24, 1-[4-chloro-5-(1-ethyl-7-methylamino-2-oxo-1,2-dihydro-[1,6]naphthyridin-3-yl)-2-fluoro-phenyl]-3-(3-fluoro-phenyl)-urea]
7 | 0.01 to 0.1 µM | < 0.01 µM | 0.01 to 0.1 µM | < 0.01 µM | CCn1c(=O)c(-c2cc(NC(=O)Nc3cccc(F)c3)c(F)cc2Cl)cc2cnc(N)cc21 [Example 20, 1-(5-(7-amino-1-ethyl-2-oxo-1,2-dihydro-1,6-naphthyridin-3-yl)-4-chloro-2-fluorophenyl)-3-(3-fluorophenyl)urea]
8 | 0.01 to 0.1 µM | 0.01 to 0.1 µM | 0.01 to 0.1 µM | 0.01 to 0.1 µM | CCn1c(=O)c(-c2cc(NC(=O)Nc3ccccc3)c(F)cc2Cl)cc2cnc(NC(=O)OC)cc21 [Example 73, methyl (3-(2-chloro-4-fluoro-5-(3-phenylureido)phenyl)-1-ethyl-2-oxo-1,2-dihydro-1,6-naphthyridin-7-yl)carbamate]
9 | < 0.01 µM | < 0.01 µM | 0.01 to 0.1 µM | < 0.01 µM | CCn1c(=O)c(-c2cc(NC(=O)Nc3cccc(F)c3F)c(F)cc2Cl)cc2cnc(NC)cc21 [Example 4, 1-(4-chloro-5-(1-ethyl-7-(methylamino)-2-oxo-1,2-dihydro-1,6-naphthyridin-3-yl)-2-fluorophenyl)-3-(2,3-difluorophenyl)urea]
